Experiments:
[1] = test system: hepatic disorder caused by carbon tetrachloride; test: Effect of suppressing hepatic disorder caused by carbon tetrachloride; type: in vivo, mice; settings: mean of 5; for Liver disorder index: mice (dd-strain), 250 mg/kg oral in olive oil, 6 h before carbon tetrachloride 0.05 ml/kg oral, visual observation 24 h after, scale 0 healthy, 2 slightly affected, 4 evident disorder, 6 serious disorder; for p-GPT (K.U.): plasma glutamic pyruvic transaminase activity, Reitman-Frankel, mice, 250 mg/kg oral, 6 h before carbon tetrachloride 0.05 ml/kg, 24 h after, values of 2,100 units or higher counted as 2,100
Experimental: Six hours thereafter, carbon tetrachloride was orally administered in a proportion of 0.05 ml/kg. The animals were sacrificed 24 hours after the administration of carbon tetrachloride, and the extent of liver disorder was examined by visual observation. On the other hand, blood was collected from the animal at the time of the sacrifice, and centrifuged to obtain plasma. The plasma glutamic piruvic transaminase (GPT) activity was determined according to the method of Reitman-Frankel. The activity was expressed in terms of Karmen Units (K.U.). The conditions of the liver were expressed in terms of liver disorder index as follows. […] Mice were used in groups of five and the results of test were represented by the mean value. When the GPT activity was 2,100 units or higher, […], and the activity was calculated as 2,100 units for reasons of convenience.

[2] = Acute oral toxicity (LD50); settings: in vivo, male rat
Experimental: For example, LD50 value (acute oral toxicity to male rat) of the compound No. 8 is more than 1,000 mg/kg.

For `CC(=O)C(C(=O)c1ccc(C)c(C)c1)=C1SCS1` [compound 4, 1-(3,4-dimethylbenzoyl)-1-(1,3-dithietan-2-ylidene)acetone], the Liver disorder index [1] was 0.6 and the “p-GPT (K.U.)” value [1] was 23 K.U.
With `O=C(C(C(=O)c1ccc(F)cc1)=C1SCS1)c1ccccc1` [compound 31, 1-(1,3-dithietan-2-ylidene)-1-(4-fluorobenzoyl)acetophenone] the Liver disorder index [1] was 0.4 and the “p-GPT (K.U.)” value [1] was 16 K.U.
For `COc1ccc(C(=O)C(C(C)=O)=C2SCS2)cc1` [compound 7], the Liver disorder index [1] was 1.2 and the “p-GPT (K.U.)” value [1] was 19 K.U.
In the case of `CC(=O)C(C(=O)c1ccc(OC(C)C)cc1)=C1SCS1` [compound 29], the Liver disorder index [1] was 3.4 and the “p-GPT (K.U.)” value [1] was 233 K.U.
With `COc1cc(C(=O)C(C(C)=O)=C2SCS2)cc(OC)c1OC` [compound 10] the Liver disorder index [1] was 1.8 and the “p-GPT (K.U.)” value [1] was 413 K.U.
For `CC(=O)C(C(=O)c1ccc(Cl)cc1)=C1SCS1` [compound 14], the Liver disorder index [1] was 0.2 and the “p-GPT (K.U.)” value [1] was 73 K.U.
In the case of `CC(=O)C(C(=O)c1cccnc1)=C1SCS1` [compound 21], the Liver disorder index [1] was 0.2 and the “p-GPT (K.U.)” value [1] was 14 K.U.
In the case of `O=C(C(C(=O)c1ccccc1)=C1SCS1)c1ccccc1` [compound 22], the Liver disorder index [1] was 0.5 and the “p-GPT (K.U.)” value [1] was 71 K.U.
With `CC(=O)C(C(C)=O)=C1SCS1` [compound 18, 1-acetyl-1-(1,3-dithietan-2-ylidene) acetone] the Liver disorder index [1] was 1.6 and the “p-GPT (K.U.)” value [1] was 1142 K.U.
With `CC(=O)C(C(=O)c1ccccc1)=C1SC(c2ccccc2)S1` (stereo not shown) [compound 23] the Liver disorder index [1] was 6.6 and the “p-GPT (K.U.)” value [1] was 1668 K.U.
For `CC(=O)C(C(=O)c1cccs1)=C1SCS1` [compound 19, 1-(1,3-dithietan-2-ylidene)-1-(2-thiophene-carbonyl)acetone], the Liver disorder index [1] was 0.2 and the “p-GPT (K.U.)” value [1] was 16 K.U.
In the case of `CC(=O)C(C(=O)c1ccc(Cl)cc1Cl)=C1SCS1` [Compound No. 15], the Liver disorder index [1] was 0.5 and the “p-GPT (K.U.)” value [1] was 203 K.U.
In the case of `Cc1cccc(C(=O)C(C(=O)c2ccccc2)=C2SCS2)c1` [compound 30], the Liver disorder index [1] was 0.6 and the “p-GPT (K.U.)” value [1] was 19 K.U.
With `COc1ccc(C(=O)C(C(C)=O)=C2SCS2)c(OC)c1` [Compound No. 8] the Liver disorder index [1] was 0.6, the “p-GPT (K.U.)” value [1] was 54 K.U and the LD50 [2] was greater than 1000 mg/kg.
In the case of `COc1cccc(C(=O)C(C(C)=O)=C2SC(c3ccccc3)S2)c1` (stereo not shown) [compound 24], the Liver disorder index [1] was 3.8 and the “p-GPT (K.U.)” value [1] was 1654 K.U.
In the case of `CC(=O)C(C(=O)c1ccc(C)cc1)=C1SCS1` [compound 3], the Liver disorder index [1] was 1.4 and the “p-GPT (K.U.)” value [1] was 14 K.U.
For `CC(=O)C(C(=O)c1ccc(F)cc1)=C1SCS1` [compound 17], the Liver disorder index [1] was 0.4 and the “p-GPT (K.U.)” value [1] was 15 K.U.
With `CC(=O)C(C(=O)c1ccc(Br)cc1)=C1SCS1` [compound 16, 1-(4-bromobenzoyl)-1-(1,3-dithietan-2-ylidene)acetone] the Liver disorder index [1] was 0 and the “p-GPT (K.U.)” value [1] was 15.8 K.U.
With `COc1ccccc1C(=O)C(C(C)=O)=C1SCS1` [Compound No. 5, 1-(1,3-dithietan-2-ylidene)-1-(2-methoxybenzoyl)acetone] the Liver disorder index [1] was 1.0 and the “p-GPT (K.U.)” value [1] was 12 K.U.
For `CC(=O)C(C(=O)c1ccc(OCc2ccc(Cl)cc2)cc1)=C1SCS1` [compound 12], the Liver disorder index [1] was 2.8 and the “p-GPT (K.U.)” value [1] was 1739 K.U.
In the case of `CC(=O)C(C(=O)c1ccc(OCc2ccccc2)cc1)=C1SCS1` [compound 11], the Liver disorder index [1] was 1.6 and the “p-GPT (K.U.)” value [1] was 884 K.U.
With `CC(=O)C(C(=O)c1ccccc1Cl)=C1SCS1` [compound 13] the Liver disorder index [1] was 0.8 and the “p-GPT (K.U.)” value [1] was 13 K.U.
For `CC(=O)C(C(=O)c1ccc2ccccc2c1)=C1SCS1` [compound 32], the Liver disorder index [1] was 0.8 and the “p-GPT (K.U.)” value [1] was 18 K.U.
For `CC(=O)C(C(=O)c1ccccc1)=C1SCS1` [Compound No. 1], the Liver disorder index [1] was 0.7 and the “p-GPT (K.U.)” value [1] was 23 K.U.
In the case of `CC(=O)C(C(=O)c1ccco1)=C1SCS1` [compound 20], the Liver disorder index [1] was 0 and the “p-GPT (K.U.)” value [1] was 22 K.U.
For `COc1cccc(C(=O)C(C(C)=O)=C2SCS2)c1` [compound 6], the Liver disorder index [1] was 2.0 and the “p-GPT (K.U.)” value [1] was 16 K.U.
With `CC(=O)C(C(C)=O)=C1SC(C)S1` (stereo not shown) [compound 25] the Liver disorder index [1] was 1.2 and the “p-GPT (K.U.)” value [1] was 205 K.U.
For `COc1ccc(C(=O)C(C(C)=O)=C2SCS2)cc1OC` [compound 9], the Liver disorder index [1] was 0.6 and the “p-GPT (K.U.)” value [1] was 11 K.U.
With `CC(C)C(=O)C(C(=O)c1ccccc1Cl)=C1SCS1` [compound 28] the Liver disorder index [1] was 1.0 and the “p-GPT (K.U.)” value [1] was 42 K.U.
For `CC(=O)C(C(=O)c1cccc(C)c1)=C1SCS1` [Compound No. 2], the Liver disorder index [1] was 0.8 and the “p-GPT (K.U.)” value [1] was 22 K.U.

Source: patent EP0234480A2, “1, 3-diketone derivatives and their use” (NIHON NOHYAKU CO., LTD., priority 1986, dated 1987)
